Results reported in US9714239B2, “N-phenyl-lactam derivatives capable of stimulating neurogenesis and their use in the treatment of neurological disorders” (Hoffmann-La Roche Inc., priority 2014, dated 2017).

tested on: human embryonic stem cell derived neural stem cells (NSCs); test: Neurogenesis assay: neural stem cell proliferation assay; conditions: 96 h, compound concentration at which 150% activity of control (100%) is reached, increase in cells based on ATP levels (CellTiterGlo), 4 days incubation, dose response 8 μM to 8 nM
Protocol: Neural Stem Cell Proliferation Assay
Neurogenic properties of small molecules are determined based on the proliferation of human embryonic stem cell derived neural stem cells (NSCs) which were derived via a dual smad inhibition as previously described (Chambers, S. M., et al., Highly efficient neural conversion of human ES and iPS cells by dual inhibition of SMAD signaling, Nature biotechnology, 2009 27(3): p. 275-80.).
Compounds response is measured by the increase in cells based on ATP levels (Promega:CellTiterGlo®) after an incubation period of 4 days. NSCs are thawed and expanded over 3 passages. On the 14th day, NSCs are seeded in Polyornithin/Laminin coated 384 well plates at a cell density of 21,000 cells/cm^2 in a media volume of 38 μl.
4 hours after cell seeding, compound solutions are added at a volume of 2 μl. Stock solutions of the compounds (water, 5% DMSO) are diluted to obtain a dose response (11 points, dilution factor is 2), ranging from 8 μM to 8 nM. Controls are run to consistently determine the neurogenic properties of the cells:
Negative (neutral) control is cell culture Media (final DMSO concentration: 0.25%).
1. cell culture Media+100 ng/ml FGF2 (final DMSO concentration: 0.1%)
2. cell culture Media+20 ng/ml EGF (final DMSO concentration: 0.1%)
3. cell culture Media+100 ng/ml Wnt3a (final DMSO concentration: 0.1%)
After 4 days incubation at 37° C., 5% CO2, the amount of ATP per well is quantified. The ATP concentration is proportional to the cell number. ATP is quantified by using the Promega CellTiterGlo® kit. The CellTiterGlo® reagents contain a cell lysis buffer, a thermo stable luciferase (UltraGlo™ recombinant luciferase), magnesium and luciferin. Luciferin reacts with ATP producing oxyluciferin, AMP and light. The luminescence signal is proportional to the ATP content.
The value of negative (neutral) control is determined for each assay plate by taking the average of 16 negative control wells. The neurogenic compound response is calculated for each compound as (compound/Negative Control)*100. The values of EC150 from the dose response curve are determined for each test compound. The EC150 is the compound concentration at which 150% activity of control (100%) is reached.

SMILES	EC (150% of control) [µM]
CCC1(c2ccccc2)CCN(c2ccc(-c3cnco3)c(OC)c2)C1=O (stereo not drawn) [Example 1, 3-Ethyl-1-(3-methoxy-4-(oxazol-5-yl)phenyl)-3-phenylpyrrolidin-2-one]	3.23
O=C1N(Cc2ccccc2)CCN1c1ccc(-c2ccncc2)cc1 [Example 2, 1-Benzyl-3-(4-(pyridin-4-yl)phenyl)imidazolidin-2-one]	1.04
COc1cccc(C2CCN(c3ccc(-c4cnco4)c(OC)c3)C2=O)c1 (stereo not drawn) [Example 3, 1-(3-Methoxy-4-oxazol-5-yl-phenyl)-3-(3-methoxyphenyl)pyrrolidin-2-one]	0.0814
COc1cc(N2CCC(c3ccccc3Cl)C2=O)ccc1-c1cnco1 (stereo not drawn) [Example 4, 3-(2-Chlorophenyl)-1-(3-methoxy-4-oxazol-5-yl-phenyl)pyrrolidin-2-one]	0.678
COc1cc(N2CCCN(Cc3ccccc3)C2=O)ccc1-c1cn[nH]c1 [Example 5, 1-Benzyl-3-[3-methoxy-4-(1H-pyrazol-4-yl)phenyl]hexahydropyrimidin-2-one]	1.33
COc1cc(N2CCCN(Cc3ccccc3Cl)C2=O)ccc1-c1cn[nH]c1 [Example 6, 1-[(2-Chlorophenyl)methyl]-3-[3-methoxy-4-(1H-pyrazol-4-yl)phenyl]hexahydropyrimidin-2-one]	1.99
COc1cccc(CN2CCCN(c3ccc(-c4cn[nH]c4)c(OC)c3)C2=O)c1 [Example 7, 1-[(3-Methoxyphenyl)methyl]-3-[3-methoxy-4-(1H-pyrazol-4-yl)phenyl]hexahydropyrimidin-2-one]	0.114
COc1cc(N2CCC(c3ccccc3)C2=O)ccc1-c1cnco1 (stereo not drawn) [Example 8, 1-(3-Methoxy-4-oxazol-5-yl-phenyl)-3-phenyl-pyrrolidin-2-one]	0.471
COc1cc(N2CCN(Cc3ccccc3)C2=O)ccc1-c1cn[nH]c1 [Example 9, 1-Benzyl-3-[3-methoxy-4-(1H-pyrazol-4-yl)phenyl]imidazolidin-2-one]	0.161
COc1cc(N2CCN(Cc3ccccc3Cl)C2=O)ccc1-c1cn[nH]c1 [Example 10, 1-[(2-Chlorophenyl)methyl]-3-[3-methoxy-4-(1H-pyrazol-4-yl)phenyl]imidazolidin-2-one]	0.27
COc1cccc(CN2CCN(c3ccc(-c4cn[nH]c4)c(OC)c3)C2=O)c1 [Example 11, 1-[(3-Methoxyphenyl)methyl]-3-[3-methoxy-4-(1H-pyrazol-4-yl)phenyl]imidazolidin-2-one]	0.0239
COc1cc(N2CCC(c3ccccc3)C2=O)ccc1-c1cn[nH]c1 (stereo not drawn) [Example 12, 1-[3-Methoxy-4-(1H-pyrazol-4-yl)phenyl]-3-phenyl-pyrrolidin-2-one]	0.0414
O=C1C(c2ccccc2)CCN1c1ccc(-c2cn[nH]c2)cc1 (stereo not drawn) [Example 13, 3-Phenyl-1-[4-(1H-pyrazol-4-yl)phenyl]pyrrolidin-2-one]	0.205
COc1cccc(C2CCN(c3ccc(-c4cn[nH]c4)cc3)C2=O)c1 (stereo not drawn) [Example 14, 3-(3-Methoxyphenyl)-1-[4-(1H-pyrazol-4-yl)phenyl]pyrrolidin-2-one]	0.0405
O=C1C(c2ccc(Cl)cc2)CCN1c1ccc(-c2cn[nH]c2)cc1 (stereo not drawn) [Example 15, 3-(4-Chlorophenyl)-1-[4-(1H-pyrazol-4-yl)phenyl]pyrrolidin-2-one]	0.384
O=C1C(c2ccc(F)cc2)CCN1c1ccc(-c2cn[nH]c2)cc1 (stereo not drawn) [Example 16, 3-(4-Fluorophenyl)-1-[4-(1H-pyrazol-4-yl)phenyl]pyrrolidin-2-one]	0.0417
O=C1C(c2cccc(Cl)c2)CCN1c1ccc(-c2cn[nH]c2)cc1 (stereo not drawn) [Example 17, 3-(3-Chlorophenyl)-1-[4-(1H-pyrazol-4-yl)phenyl]pyrrolidin-2-one]	0.23
COc1cc(N2CCN(Cc3cccc(Cl)c3)C2=O)ccc1-c1cn[nH]c1 [Example 18, 1-[(3-Chlorophenyl)methyl]-3-[3-methoxy-4-(1H-pyrazol-4-yl)phenyl]imidazolidin-2-one]	0.395

SMILES	EC (150% of control) [µM]
COc1cc(N2CCN(Cc3cccc(F)c3)C2=O)ccc1-c1cn[nH]c1 [Example 19, 1-[(3-Fluorophenyl)methyl]-3-[3-methoxy-4-(1H-pyrazol-4-yl)phenyl]imidazolidin-2-one]	0.047
COc1cc(N2CCN(Cc3cccc(C(F)(F)F)c3)C2=O)ccc1-c1cn[nH]c1 [Example 20, 1-[3-Methoxy-4-(1H-pyrazol-4-yl)phenyl]-3-[[3-(trifluoromethyl)phenyl]methyl]imidazolidin-2-one]	0.0086
COc1cc(N2CCN(Cc3cccc(OC(F)(F)F)c3)C2=O)ccc1-c1cn[nH]c1 [Example 21, 1-[3-Methoxy-4-(1H-pyrazol-4-yl)phenyl]-3-[[3-(trifluoromethoxy)phenyl]methyl]imidazolidin-2-one]	0.0092
CCOc1cccc(CN2CCN(c3ccc(-c4cn[nH]c4)c(OC)c3)C2=O)c1 [Example 22, 1-[(3-Ethoxyphenyl)methyl]-3-[3-methoxy-4-(1H-pyrazol-4-yl)phenyl]imidazolidin-2-one]	0.0739
COc1cc(N2CCC(Cc3ccccc3)C2=O)ccc1-c1cn[nH]c1 (stereo not drawn) [Example 23, 3-Benzyl-1-(3-methoxy-4-(1H-pyrazol-4-yl)phenyl)pyrrolidin-2-one]	0.612
COc1cccc(C2CCN(c3ccc(-c4cn[nH]c4)c(OC)c3)C2=O)c1 (stereo not drawn) [Example 24, 1-(3-Methoxy-4-(1H-pyrazol-4-yl)phenyl)-3-(3-methoxyphenyl)pyrrolidin-2-one]	0.0299
COc1cc(N2CCC(c3cccc(Cl)c3)C2=O)ccc1-c1cn[nH]c1 (stereo not drawn) [Example 25, 3-(3-Chlorophenyl)-1-(3-methoxy-4-(1H-pyrazol-4-yl)phenyl)pyrrolidin-2-one]	0.0659
COc1cc(N2CCC(c3cccc(F)c3)C2=O)ccc1-c1cn[nH]c1 (stereo not drawn) [Example 26, 3-(3-Fluorophenyl)-1-(3-methoxy-4-(1H-pyrazol-4-yl)phenyl)pyrrolidin-2-one]	0.0776
COc1cccc(CN2CCN(c3ccc(-c4cn[nH]c4)cc3)C2=O)c1 [Example 27, 1-[(3-Methoxyphenyl)methyl]-3-[4-(1H-pyrazol-4-yl)phenyl]imidazolidin-2-one]	0.294
COc1cccc(CN2CCN(c3ccc(-c4cn[nH]c4)c(C)c3)C2=O)c1 [Example 28, 1-[(3-Methoxyphenyl)methyl]-3-[3-methyl-4-(1H-pyrazol-4-yl)phenyl]imidazolidin-2-one]	1.22
COc1cccc(CN2CCN(c3ccc(-c4cn[nH]c4)c(Cl)c3)C2=O)c1 [Example 29, 1-[3-Chloro-4-(1H-pyrazol-4-yl)phenyl]-3-[(3-methoxyphenyl)methyl]imidazolidin-2-one]	0.366
COc1cccc(CN2CCN(c3ccc(-c4cn[nH]c4)cc3F)C2=O)c1 [Example 30, 1-[2-Fluoro-4-(1H-pyrazol-4-yl)phenyl]-3-[(3-methoxyphenyl)methyl]imidazolidin-2-one]	0.0416
COc1cccc(CN2CCN(c3ccc(-c4cn[nH]c4)c(F)c3)C2=O)c1 [Example 31, 1-[3-Fluoro-4-(1H-pyrazol-4-yl)phenyl]-3-[(3-methoxyphenyl)methyl]imidazolidin-2-one]	0.0157
CCOc1cc(N2CCN(Cc3cccc(OC)c3)C2=O)ccc1-c1cn[nH]c1 [Example 32, 1-[3-Ethoxy-4-(1H-pyrazol-4-yl)phenyl]-3-[(3-methoxyphenyl)methyl]imidazolidin-2-one]	0.835
COc1cc(N2CCN(Cc3ccccc3F)C2=O)ccc1-c1cn[nH]c1 [Example 33, 1-[(2-Fluorophenyl)methyl]-3-[3-methoxy-4-(1H-pyrazol-4-yl)phenyl]imidazolidin-2-one]	0.225
COc1cc(N2CCN(Cc3ccccc3C)C2=O)ccc1-c1cn[nH]c1 [Example 34, 1-[3-Methoxy-4-(1H-pyrazol-4-yl)phenyl]-3-(o-tolylmethyl)imidazolidin-2-one]	0.2
COc1cc(N2CCN(Cc3cccc(C)c3)C2=O)ccc1-c1cn[nH]c1 [Example 35, 1-[3-Methoxy-4-(1H-pyrazol-4-yl)phenyl]-3-(m-tolylmethyl)imidazolidin-2-one]	2.65
COc1cc(N2CCC(Cc3cccc(Cl)c3)C2=O)ccc1-c1cn[nH]c1 (stereo not drawn) [Example 36, 3-[(3-Chlorophenyl)methyl]-1-[3-methoxy-4-(1H-pyrazol-4-yl)phenyl]pyrrolidin-2-one]	1.65
